# Patent publication US20090253634A1, “Methods and Compositions for the Treatment of Gastrointestinal Disorders” (MICROBIA, INC., priority 2005, published 2009)
# pKi: −log10 of the molar value. Read-outs that look alike come from different tables or passages of the source. Bridge positions count the residues as written; N and C are the ends. Peptide text beside a SMILES is read from it.
# Columns and labels:
# gastrointestinal transit = gastrointestinal transit assay in wild-type and GC-C KO mice; assay type: in vivo; conditions: oral 100 μg/kg
# Method: Wild type and GC-C KO mice were fasted overnight and SEQ ID NO: 3 or vehicle alone were orally administered 10 minutes prior to an oral dose of a 10% Activated Carbon/10% Gum Arabic suspension. Animals were sacrificed […] after peptide or vehicle administration.
# [1] = test system: abdominal response to colorectal distension; assay: TNBS visceral hypersensitivity rat model (colorectal distension, EMG); assay type: in vivo, Wistar rats; conditions: 0.3 μg/kg and 3 μg/kg; given one hour before CRD
# Method: Male Wistar rats (220-250 g) were premedicated with 0.5 mg/kg of acepromazine injected intraperitoneally (IP) and anesthetized by intramuscular administration of 100 mg/kg of ketamine. Pairs of nichrome wire electrodes (60 cm in length and 80 μm in diameter) were implanted in the striated muscle of the abdomen, 2 cm laterally from the white line. The free ends of electrodes were exteriorized on the back of the neck and protected by a plastic tube attached to the skin. Electromyographic (EMG) recordings were started 5 days after surgery. Electrical activity of abdominal striated muscle was recorded with an electroencephalograph machine (Mini VIII, Alvar, Paris, France) using a short time constant (0.03 sec.) to remove low-frequency signals (<3 Hz).
# Ten days post surgical implantation, trinitrobenzenesulphonic acid ([…]) was administered to induce rectal inflammation. TNBS (80 mg kg^−1 in 0.3 ml 50% ethanol) was administered intrarectally through a silicone rubber catheter introduced at 3 cm from the anus under light diethyl-ether anesthesia, as described (Morteau et al. 1994 Dig Dis Sci 39:1239). […] Evaluation of rectal sensitivity, as measured by EMG, was performed before (1-2 days) and 3 days following rectal instillation of TNBS.
# The number of spike bursts that corresponds to abdominal contractions was determined per 5 min periods. […]
# [2] = target: T1, GC-C receptors on the cell surface of human colonic cells (T84 cells) (Homo sapiens, UniProt P25092); assay: competitive radioligand-binding assay on T84 cells
# T1 construct: 2.5×10^5 T84 cells (0.25 mg protein); host or cells: T84 human colonic cells
# T1 sequence (P25092 24-1073): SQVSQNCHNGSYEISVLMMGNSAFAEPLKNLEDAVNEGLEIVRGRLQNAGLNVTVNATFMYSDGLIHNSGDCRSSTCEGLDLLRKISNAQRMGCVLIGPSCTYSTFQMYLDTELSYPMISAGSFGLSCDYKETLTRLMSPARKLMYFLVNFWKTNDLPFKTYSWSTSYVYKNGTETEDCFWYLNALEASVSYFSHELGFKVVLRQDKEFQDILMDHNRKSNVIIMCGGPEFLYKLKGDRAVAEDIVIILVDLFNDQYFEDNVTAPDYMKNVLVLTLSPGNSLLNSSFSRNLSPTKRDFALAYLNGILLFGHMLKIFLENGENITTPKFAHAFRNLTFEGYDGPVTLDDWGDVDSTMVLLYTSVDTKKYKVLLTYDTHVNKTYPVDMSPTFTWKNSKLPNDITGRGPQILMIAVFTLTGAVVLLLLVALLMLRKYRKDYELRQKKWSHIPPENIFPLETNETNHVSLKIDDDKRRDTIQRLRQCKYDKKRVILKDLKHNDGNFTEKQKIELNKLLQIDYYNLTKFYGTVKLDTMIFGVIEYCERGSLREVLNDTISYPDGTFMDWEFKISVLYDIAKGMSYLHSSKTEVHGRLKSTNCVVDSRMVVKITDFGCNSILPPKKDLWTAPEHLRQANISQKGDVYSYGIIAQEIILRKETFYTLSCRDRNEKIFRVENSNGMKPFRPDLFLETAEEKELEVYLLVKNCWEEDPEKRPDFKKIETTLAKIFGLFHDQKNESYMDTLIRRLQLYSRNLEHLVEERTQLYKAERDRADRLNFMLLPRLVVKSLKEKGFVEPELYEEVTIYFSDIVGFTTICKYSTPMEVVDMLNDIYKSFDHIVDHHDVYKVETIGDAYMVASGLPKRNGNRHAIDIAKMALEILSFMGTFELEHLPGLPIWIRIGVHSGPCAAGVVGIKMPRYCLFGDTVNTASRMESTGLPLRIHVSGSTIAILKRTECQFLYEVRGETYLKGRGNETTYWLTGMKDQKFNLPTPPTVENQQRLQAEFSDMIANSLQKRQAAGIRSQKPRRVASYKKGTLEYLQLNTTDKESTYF
# Method: The radiolabeled tracer used in these experiments was ^125I-SEQ ID NO:7. To determine binding constants, competitive inhibition of binding was used. T84 cells were cultured in T-150 plastic flasks in DMEM and Ham's F-12 medium containing 5% fetal bovine serum. Monolayers at 60-70% confluency (approximately 10^7 cells) were collected by gentle scraping followed by centrifugation, and washed twice in 50 mL of phosphate-buffered saline (PBS). The cells were resuspended in 1 mL DMEM containing 20 mM […] (Hepes), pH 7.0 and 0.5% bovine serum albumin (BSA). T84 cells were incubated with a constant amount of ^125I-SEQ ID NO:7 containing various concentrations of cold competitor. Free ^125I-SEQ ID NO:7 was separated from bound tracer by rapid suction filtration. The binding reactions were carried out in 1.5 mL microfuge tubes in 0.24 mL of DMEM/20 mM Hepes pH 7.0/0.5% BSA containing: 2.5×10^5 T84 cells (0.25 mg protein), 200,000 cpm ^125I-SEQ ID NO:7 (41 fmol, 170 pM), and 0.01 to 1,000 nM competitor. Binding assays at pH 5.0 were done in DMEM/20 mM 2-(N-morpholino) ethanesulfonic acid (Mes), pH 5.0. Binding assays in pH 8.0 were done in DMEM/20 mM Hepes/50 mM sodium bicarbonate pH 8.0. One sample contained no competitor (B0) and another contained no cells. After incubation at 37° C. for 1 h, the reaction mixtures were applied to Whatman GF/B glass-fiber filters by suction filtration. The filters were then rinsed with 10 mL ice-cold PBS buffer, inserted into plastic tubes, and added to 2 mL scintillation fluid. Radioactivity was measured in a LS 6500 liquid scintillation counter (Beckman-Coulter). The percent bound in each sample is calculated by the equation:
# % B/B0=(sample cpm−no cells cpm)×100/(B0cpm−no cells cpm)
# Competitive radioligand-binding curves were generated using the Graphpad PRISM™ computer program. […]
# pepsin = target: T2, pepsin (Sus scrofa, UniProt P00791); assay: in vitro proteolytic stability: pepsin; assay type: in vitro ADME, porcine; conditions: pH 2.0, 37° C., up to 3 h
# T2 construct: purchased Sigma-Aldrich P68871; host or cells: porcine gastric mucosa
# T2 sequence (P00791 60-385): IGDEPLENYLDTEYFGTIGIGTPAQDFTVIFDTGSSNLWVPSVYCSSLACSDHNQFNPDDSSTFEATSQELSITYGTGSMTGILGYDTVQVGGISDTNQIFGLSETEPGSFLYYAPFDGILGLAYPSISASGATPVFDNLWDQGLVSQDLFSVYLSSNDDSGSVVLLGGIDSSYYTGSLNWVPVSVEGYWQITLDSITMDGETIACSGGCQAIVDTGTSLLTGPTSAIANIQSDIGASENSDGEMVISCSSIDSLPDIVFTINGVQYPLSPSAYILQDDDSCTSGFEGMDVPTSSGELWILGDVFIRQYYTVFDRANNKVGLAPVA
# Method: All samples were analyzed by LC/MS
SMILES,gastrointestinal transit rate versus vehicle (gastrointestinal transit),abdominal response to colorectal distension after TNBS [1],"effect of pH on binding to the high affinity site, Ki1 ([2]; pH 5, 7 and 8)",Cleavage of SEQ ID NO: 3 by proteolytic substance (pepsin),pKi [2],"pKi ([2]; read-out: Ki2 (low affinity site), pH 7.0, T84 cells, tracer 125I-SEQ ID NO:7)"
"C[C@@H]1NC(=O)[C@@H]2CCCN2C(=O)[C@H](CC(N)=O)NC(=O)[C@@H]2CSSC[C@H](N)C(=O)N[C@H]3CSSC[C@H](NC1=O)C(=O)N[C@@H]([C@@H](C)O)C(=O)NCC(=O)N[C@H](C(=O)N[C@@H](Cc1ccc(O)cc1)C(=O)O)CSSC[C@H](NC(=O)[C@H](Cc1ccc(O)cc1)NC(=O)[C@H](CCC(=O)O)NC3=O)C(=O)N2 [SEQ ID NO:3] (H-CCEYCCNPACTGCY-OH; disulfide 1-6, 2-10, 5-13; N-terminus and C-terminus assumed)",an increase (p<0.001) in gastrointestinal transit rate,Significant decreases in abdominal response,not affected by pH,not detectable,–,–
"C[C@@H]1NC(=O)[C@@H]2CCCN2C(=O)[C@H](CC(N)=O)NC(=O)[C@@H]2CSSC[C@H](N)C(=O)N[C@H]3CSSC[C@H](NC1=O)C(=O)N[C@@H]([C@@H](C)O)C(=O)NCC(=O)N[C@H](C(=O)O)CSSC[C@H](NC(=O)[C@H](Cc1ccc(O)cc1)NC(=O)[C@H](CCC(=O)O)NC3=O)C(=O)N2 [SEQ ID NO:6] (H-CCEYCCNPACTGC-OH; disulfide 1-6, 2-10, 5-13)",–,–,–,–,8.80,6.35
